# In patent US8501787B2, “Compounds for the inhibition of angiogenesis and use thereof” (Shire Orphan Therapies GmbH, priority 2004, dated 2013):
# Molecular target: T1, integrin alpha5beta1 (Homo sapiens, UniProt P05556+P08648)
# T1 construct: The integrin alpha5beta1 extracellular domain Fc-fusion was expressed and purified; made in house
# Experiment: Alpha5beta1-Fibronectin binding assay (competitive ELISA)
# Settings: inhibition of integrin binding to fibronectin; read-out: IC50 alpha5beta1 in nM
# Experimental: The optimal concentrations of integrin and ligand were selected from ELISA binding studies with variable concentrations of both to obtain optimal signal noise ratio for further studies. IC50 studies were performed with fixed concentration of ligand and integrin and a serial dilution of inhibitor. The plates were measured with SpectraMax Plus reader (Molecular Devices). The resulting inhibition curves were analyzed using SoftMaxPro 4.0 software, the turning point describes the IC50 value.
# Fibronectin and Vitronectin were purchased from Sigma, fibrinogen from Calbiochem. (EMD Biosciences, Darmstadt, Germany) The integrin alpha5beta1 extracellular domain Fc-fusion was expressed and purified as described in (Coe, 2001, JBC, 276, 35854). Integrins alphavbeta3 and alphavbeta5 were purchased from Chemicon (Chemicon Europe, Germany) and alphaIIbbeta3 form Kordia (Kordia Life Science, Leiden, Netherlands)
# Fibronectin was diluted with coating buffer (15 mM Na2CO3, 35 mM NaHCO3, pH9.6) and coated with 100 μL/well to Nunc-Immuno maxisorp plates (Nalge Nunc Europe Ltd) over night at 4° C. After discarding the coating solution plates were washed 3 times with buffer 1 ([…], pH7.6, 150 mM NaCl, 1 mM […], 1 mg/mL BSA) and blocked with 100 μL blocking buffer (3% BSA in PBS 0.1% Tween20) for 1 hour at room temperature. After washing the blocked plates (3 times) with buffer 1, integrin (50 μL) and either inhibitor (serial dilution in buffer 1) or buffer 1 (50 μL) were added to the wells and incubated for one hour at RT. Plates were then washed (3 times) with buffer 1 and incubated with 100 μL of anti-human-Fc-HRP antibody conjugate (Sigma-Aldrich, Taufkirchen, Germany) in buffer 1 for 1 hour at RT. After additional washing steps (3 times) with buffer 1 50 μL of HRP substrate solution TMB (Seramun, Germany) were added to the wells. Colour development was stopped after 3-5 minutes with 50 μL 1M H2SO4. The developed colour was measured at 450 nm and analyzed as described above.
row,IC50 [nM],SMILES
1,5.8,"C#CCOC(=O)N1C[C@H](OCC(=O)NC[C@H](NS(=O)(=O)c2c(C)cc(C)cc2C)C(=O)O)C[C@H]1CNc1ccccn1 [Compound 44, 4-{[2-Carboxy-2-(2,4,6-trimethyl-benzenesulfonylamino)-ethylcarbamoyl]-methoxy}-2-(pyridin-2-ylaminomethyl)-pyrrolidine-1-carboxylic acid prop-2-ynyl ester]"
2,18.1,"Cc1ccc(CNC(=O)N2C[C@H](OCC(=O)NC[C@H](NS(=O)(=O)c3c(C)cc(C)cc3C)C(=O)O)C[C@H]2CNc2ccccn2)cc1 [Compound 25, 3-{2-[1-(4-Methyl-benzylcarbamoyl)-5-(pyridin-2-ylaminomethyl)-pyrrolidin-3-yloxy]-acetylamino}-2-(2,4,6-trimethyl-benzenesulfonylamino)-propionic acid]"
3,6.6,"Cc1cc(C)c(S(=O)(=O)N[C@@H](CNC(=O)CO[C@@H]2C[C@@H](CNc3ccccn3)N(C(=O)NC3CCCC3)C2)C(=O)O)c(C)c1 [Compound 20, 3-{2-[1-Cyclopentylcarbamoyl-5-(pyridin-2-ylaminomethyl)-pyrrolidin-3-yloxy]-acetylamino}-2-(2,4,6-trimethyl-benzenesulfonylamino)-propionic acid]"

# Same assay, conditions: method of section 1.1; read-out: Group (binding activities to integrin alpha5beta1)
row,SMILES,IC50 [nM]
1,"COc1cccc(OC)c1C(=O)N[C@@H](CNC(=O)CO[C@@H]1C[C@@H](CNc2ccccn2)N(C(=O)OCc2ccccc2)C1)C(=O)O [Compound 90, 4-{[2-Carboxy-2-(2,6-dimethoxy-benzoylamino)-ethylcarbamoyl]-methoxy}-2-(pyridin-2-ylaminomethyl)-pyrrolidine-1-carboxylic acid benzyl ester]",< 10
2,"O=C(CO[C@@H]1C[C@@H](CNc2ccccn2)N(C(=O)OCc2ccccc2)C1)NC[C@H](NC(=O)C1CCCCC1)C(=O)O [Compound 91, 4-{[2-Carboxy-2-(cyclohexanecarbonyl-amino)-ethylcarbamoyl]-methoxy}-2-(pyridin-2-ylaminomethyl)-pyrrolidine-1-carboxylic acid benzyl ester]",< 10
3,"Cc1ccc(C[C@@H](CC(=O)O)NC(=O)CO[C@@H]2C[C@@H](CNc3ccccn3)N(C(=O)OCc3ccccc3)C2)cc1 [Compound 152, 4-[(1-Carboxymethyl-2-p-tolyl-ethylcarbamoyl)-methoxy]-2-(pyridin-2-ylaminomethyl)-pyrrolidine-1-carboxylic acid benzyl ester]",> 500
4,"C#CCOC(=O)N1C[C@H](OCC(=O)NC[C@H](NS(=O)(=O)c2c(C)cc(C)cc2C)C(=O)O)C[C@H]1CNc1ccccn1 [Compound 44, 4-{[2-Carboxy-2-(2,4,6-trimethyl-benzenesulfonylamino)-ethylcarbamoyl]-methoxy}-2-(pyridin-2-ylaminomethyl)-pyrrolidine-1-carboxylic acid prop-2-ynyl ester]",< 10
5,"Cc1cccc(C)c1C(=O)N[C@@H](CNC(=O)CO[C@@H]1C[C@@H](CNc2ccccn2)N(C(=O)OCc2ccccc2)C1)C(=O)O [Compound 92, 4-{[2-Carboxy-2-(2,6-dimethyl-benzoylamino)-ethylcarbamoyl]-methoxy}-2-(pyridin-2-ylaminomethyl)-pyrrolidine-1-carboxylic acid benzyl ester]",< 10
6,"Cc1cc(C)c(S(=O)(=O)N[C@@H](CNC(=O)CO[C@@H]2C[C@@H](CNc3cc[nH]n3)N(C(=O)OCc3ccccc3)C2)C(=O)O)c(C)c1 [Compound 135, 4-{[2-Carboxy-2-(2,4,6-trimethyl-benzenesulfonylamino)-ethylcarbamoyl]-methoxy}-2-[(1H-pyrazol-3-ylamino)-methyl]-pyrrolidine-1-carboxylic acid benzyl ester]",> 500
7,"O=C(CO[C@@H]1C[C@@H](CNc2ccccn2)N(C(=O)OCc2ccccc2)C1)NC[C@H](NC(=O)c1ccccc1-c1ccccc1)C(=O)O [Compound 104, 4-({2-[(Biphenyl-2-carbonyl)-amino]-2-carboxy-ethylcarbamoyl}-methoxy)-2-(pyridin-2-ylaminomethyl)-pyrrolidine-1-carboxylic acid benzyl ester]",10 to 500
8,"N[C@@H](CNC(=O)CO[C@@H]1C[C@@H](CNc2ccccn2)N(C(=O)OCc2ccccc2)C1)C(=O)O [Compound 81, 4-[(2-Amino-2-carboxy-ethylcarbamoyl)-methoxy]-2-(pyridin-2-ylaminomethyl)-pyrrolidine-1-carboxylic acid benzyl ester]",> 500
9,"O=C(CO[C@@H]1C[C@@H](CNc2ccccn2)N(C(=O)OCc2ccccc2)C1)NC[C@H](NC(=O)Nc1ccc(-c2ccccc2)cc1)C(=O)O [Compound 80, 4-{[2-(3-Biphenyl-4-yl-ureido)-2-carboxy-ethylcarbamoyl]-methoxy}-2-(pyridin-2-ylaminomethyl)-pyrrolidine-1-carboxylic acid benzyl ester]",10 to 500
10,"O=C(CO[C@@H]1C[C@@H](CNc2ccccn2)N(C(=O)OCc2ccccc2)C1)NC[C@H](NC(=O)CCCc1ccccc1)C(=O)O [Compound 127, 4-{[2-Carboxy-2-(4-phenyl-butyrylamino)-ethylcarbamoyl]-methoxy}-2-(pyridin-2-ylaminomethyl)-pyrrolidine-1-carboxylic acid benzyl ester]",10 to 500
11,"Cc1cc(C)c(S(=O)(=O)N[C@@H](CNC(=O)CO[C@@H]2C[C@@H](CNc3ncccn3)N(C(=O)OCc3ccccc3)C2)C(=O)O)c(C)c1 [Compound 130, 4-{[2-Carboxy-2-(2,4,6-trimethyl-benzenesulfonylamino)-ethylcarbamoyl]-methoxy}-2-(pyrimidin-2-ylaminomethyl)-pyrrolidine-1-carboxylic acid benzyl ester]",> 500
12,"COc1ccnc(NC[C@@H]2C[C@@H](OCC(=O)NC[C@H](NC(=O)C3(C)CCCCC3)C(=O)O)CN2C(=O)CC(C)(C)C)c1 [Compound 148, 3-(2-{1-(3,3-Dimethyl-butyryl)-5-[(4-methoxy-pyridin-2-ylamino)-methyl]-pyrrolidin-3-yloxy}-acetylamino)-2-[(1-methyl-cyclohexanecarbonyl)-amino]-propionic acid]",< 10

# Second part, the molecule after the results:
row,IC50 [nM],SMILES
1,10 to 500,"O=C(CO[C@@H]1C[C@@H](CNc2ccccn2)N(C(=O)OCc2ccccc2)C1)NC[C@H](NC(=O)C1(c2ccccc2)CC1)C(=O)O [Compound 106, 4-({2-Carboxy-2-[(1-phenyl-cyclopropanecarbonyl)-amino]-ethylcarbamoyl}-methoxy)-2-(pyridin-2-ylaminomethyl)-pyrrolidine-1-carboxylic acid benzyl ester]"
2,< 10,"O=C(CO[C@@H]1C[C@@H](CNc2ccccn2)N(C(=O)OCc2ccccc2)C1)NC[C@H](NC(=O)c1ccccc1Cl)C(=O)O [Compound 97, 4-{[2-Carboxy-2-(2-chloro-benzoylamino)-ethylcarbamoyl]-methoxy}-2-(pyridin-2-ylaminomethyl)-pyrrolidine-1-carboxylic acid benzyl ester]"
3,10 to 500,"Cc1ccc(CNC(=O)N2C[C@H](OCC(=O)NC[C@H](NS(=O)(=O)c3c(C)cc(C)cc3C)C(=O)O)C[C@H]2CNc2ccccn2)cc1 [Compound 25, 3-{2-[1-(4-Methyl-benzylcarbamoyl)-5-(pyridin-2-ylaminomethyl)-pyrrolidin-3-yloxy]-acetylamino}-2-(2,4,6-trimethyl-benzenesulfonylamino)-propionic acid]"
4,> 500,"Cc1cc(C)c(CNC(CNC(=O)COC2CC(CNc3ccccn3)N(C(=O)OCc3ccccc3)C2)C(=O)O)c(C)c1 (stereo not drawn) [Compound 82, 4-{[2-Carboxy-2-(2,4,6-trimethyl-benzylamino)-ethylcarbamoyl]-methoxy}-2-(pyridin-2-ylaminomethyl)-pyrrolidine-1-carboxylic acid benzyl ester]"
5,10 to 500,"Cc1cc(C)c(S(=O)(=O)N[C@@H](CNC(=O)CO[C@@H]2C[C@@H](CNc3ccccn3)N(C(=S)Nc3ccc(-c4c5ccc(=O)cc-5oc5cc(O)ccc45)c(C(=O)O)c3)C2)C(=O)O)c(C)c1 [Compound 61, 5-{[4-{[2-Carboxy-2-(2,4,6-trimethyl-benzenesulfonylamino)-ethylcarbamoyl]-methoxy}-2-(pyridin-2-ylaminomethyl)-pyrrolidine-1-carbothioyl]-amino}-2-(6-hydroxy-3-oxo-3H-xanthen-9-yl)-benzoic acid]"
6,> 500,"CS(=O)(=O)NC(CNC(=O)COC1CC(CNc2ccccn2)N(C(=O)OCc2ccccc2)C1)C(=O)O (stereo not drawn) [Compound 69, 4-[(2-Carboxy-2-methanesulfonylamino-ethylcarbamoyl)-methoxy]-2-(pyridin-2-ylaminomethyl)-pyrrolidine-1-carboxylic acid benzyl ester]"
7,10 to 500,"Cc1cc(C)c(S(=O)(=O)N[C@@H](CNC(=O)CO[C@@H]2C[C@@H](CNc3ccccn3)N(CCCc3ccccc3)C2)C(=O)O)c(C)c1 [Compound 18, 3-{2-[1-(3-Phenyl-propyl)-5-(pyridin-2-ylaminomethyl)-pyrrolidin-3-yloxy]-acetylamino}-2-(2,4,6-trimethyl-benzenesulfonylamino)-propionic acid]"
8,> 500,"CC(C)c1cc(C(C)C)c(C(=O)N[C@@H](CNC(=O)CO[C@@H]2C[C@@H](CNc3ccccn3)N(C(=O)OCc3ccccc3)C2)C(=O)O)c(C(C)C)c1 [Compound 126, 4-{[2-Carboxy-2-(2,4,6-triisopropyl-benzoylamino)-ethylcarbamoyl]-methoxy}-2-(pyridin-2-ylaminomethyl)-pyrrolidine-1-carboxylic acid benzyl ester]"
9,< 10,"Cc1cc(C)c(S(=O)(=O)N[C@@H](CNC(=O)CO[C@@H]2C[C@@H](CNc3ccccn3)N(C(=O)NC3CCCC3)C2)C(=O)O)c(C)c1 [Compound 20, 3-{2-[1-Cyclopentylcarbamoyl-5-(pyridin-2-ylaminomethyl)-pyrrolidin-3-yloxy]-acetylamino}-2-(2,4,6-trimethyl-benzenesulfonylamino)-propionic acid]"
